Assay results reported in publication PMC10288505, “Photoswitchable Calixarene Activators for Controlled Peptide Transport across Lipid Membranes” (Journal of the American Chemical Society, 2023).
Blank lines part the entries; values can stand above or below the molecule they belong to.

Tests used:
[1] = tested on: R3; experiment: Indicator displacement assay with host:LCG reporter pair, guest R3; assay type: binding; details: association constant, competitive dye displacement with LCG, 5 mM phosphate buffer pH 7.3, mean ± SD of triplicate
Text: (§1) The binding affinity of the anionic calixarene activators toward cationic peptides was investigated using a small library of highly hydrophilic oligoarginines, from 3 to 8 residues. These peptides are not able to spontaneously transverse zwitterionic artificial membranes in vesicle assays, which allows the accurate evaluation of the calixarenes 1 and 2 as counterion activators without interferences from the transport of the peptide alone.[43]−[45] First, the formation of host–guest complexes between 1/2 and the selected peptides was verified by indicator displacement assays using lucigenin (LCG) as the fluorescent indicator.[46] As previously reported for other sulfonatocalixarene derivatives,[46] the formation of host–guest binding pairs between calixarenes 1/2 in the E- and Z-forms and LCG results in significant static fluorescence quenching (see Figure 2A and Figures S26 and S27). Quantitative analysis of the fluorescence titration data using a 1:1 host:guest binding model allows the determination of the respective binding constants (K) reported in Table 1. As can be observed, both 1/2 display high affinity for the LCG dye, on the 10^7 M^–1 range, which seems to be independent of the nature and conformation of the azobenzene arm. […] The host:LCG binding pairs were then employed in the above-mentioned indicator displacement assays to investigate the binding affinity of oligoarginines toward 1 and 2 (see Figure 2B and Figures S29–S33).
(§2) The binding affinities of the counterion activators and peptide complexes were analyzed by indicator displacement assays. The fluorescent dye chosen for these experiments was lucigenin (LCG) due to its complex with the receptor SC4 being well characterized and due to the high variation of emission between its bound and free form. Firstly, the affinity for LCG was calculated for each of the activators, by titrations followed by fluorescence spectroscopy leading to almost full quenching of the emission. For the competitive assays, a concentration of LCG and activator was chosen in order to have approximately 90% of complexed dye and that mixture was then titrated with each of the peptides, leading to the regaining of emission when LCG was release from the complex.
(§3) Figure S26 - Fluorescence titration of the lucigenin dye with increasing concentrations of A) E-1 and B) Z–1 in water (5 mM phosphate buffer pH 7.3). LCG concentration was fixed 0.2 µM in all experiments, except for the first E-1 titrations were [LCG]
(§4) (1 picture or pasted object on this page, not shown here)
(§5) Figure S29 - Indicator displacement titration of the several oligoarginines A) R3 B) R4 C) R6 and D) R8, using SC4:LCG as the reporter pair (5 mM phosphate buffer pH 7.3). LCG and SC4 concentrations were fixed at A) 0.22 and 0.50 µM, for all three replicates, B) 0.22 and 4.7 µM for the first titration and 0.22 and 4.3 µM for the remaining two replicates, C) 0.22 and 0.45 µM and 1.1 and 0.85 µM and D) 0.28 and 0.43 µM and 1.1 and 0.85 µM, respectively, from left to right.
(§6) Figure S30 - Indicator displacement titration of the several oligoarginines A) R3 B) R4 C) R6 and D) R8, using E-1:LCG as the reporter pair (5 mM phosphate buffer pH 7.3) LCG and E-1 concentrations were fixed at A) 0.11 and 0.25 µM, for all three replicates, B) 0.22 and 0.5 µM, for the first two titrations and 0.22 and 0.23 µM for the remaining replicate, C) 4.0 and 3.8 µM and 0.22 and 0.5 µM, D) 4 and 3 µM and 0.22 and 0.5 µM, respectively, from left to right. […]

[2] = tested on: R4; experiment: Indicator displacement assay with host:LCG reporter pair, guest R4; assay type: binding; details: association constant, competitive dye displacement with LCG, 5 mM phosphate buffer pH 7.3, mean ± SD of triplicate
Text: as §1, §2, §3, §4, §5, §6

[3] = tested on: hexaarginine (R6); experiment: Indicator displacement assay with host:LCG reporter pair, guest R6; assay type: binding; details: association constant, competitive dye displacement with LCG, 5 mM phosphate buffer pH 7.3; only the lower limit can be estimated
Text: as §1
Figure 2 (A) Fluorescence titration of the lucigenin dye (LCG, 1.5 μM) with increasing concentrations of E-2 in water (5 mM phosphate buffer, pH 7.3). […]
(§7) The binding affinities of the counterion activators and peptide complexes were analyzed by indicator displacement assays. […] Firstly, the affinity for LCG was calculated for each of the activators, by titrations followed by fluorescence spectroscopy leading to almost full quenching of the emission. […]
(§8) Figure S26 - Fluorescence titration of the lucigenin dye with increasing concentrations of A) E-1 and B) Z–1 in water (5 mM phosphate buffer pH 7.3). […]

[4] = tested on: R8; experiment: Indicator displacement assay with host:LCG reporter pair, guest R8; assay type: binding; details: association constant, competitive dye displacement with LCG, 5 mM phosphate buffer pH 7.3; only the lower limit can be estimated
Text: as §1, §7, §8

[5] = Carboxyfluorescein (CF) dye efflux assay, counterion-activated peptide transport; assay type: biochemical; details: for CF transport out of the liposomes on addition of peptide alone: peptide 4 µM, no activator, LUV 15 µM lipid with 50 mM CF encapsulated
Method: Dynamic light scattering (DLS) control experiments also confirmed liposome integrity under the experimental conditions employed in the different membrane transport assays, which ruled out potential membrane disruption interferences (Figure S34). Established dye efflux assays were performed using the carboxyfluorescein (CF) dye encapsulated at self-quenching concentrations in egg phosphatidylcholine large unilamellar vesicles (EYPC-LUV⊃CF).[26],[27],[29],[45] In these experiments, the fractional release of trapped CF (or fractional transport activity, Y), triggered by the addition of counterion activators and peptides, is monitored by time-resolved fluorescence spectroscopy and calibrated by the addition of Triton X-100 (Figure S35).
The studies were performed with both 1 and 2 in the E and Z configurations in the presence of fixed concentrations of liposomes and cationic peptides. […] Likewise, the addition of peptides alone or nonbinding anionic peptides in the presence of calixarene activators also results in unmodified fluorescence signal, confirming that the formation of the calixarene–peptide complex is critical to activate the transport process. […] This approach retrieves the Ymax (i.e., maximal CF release relative to liposome lysis after the addition of Triton X-100) and EC50 (i.e., the effective counterion activator concentration required to reach Ymax/2) as the relevant parameters to measure the efficiency of the counterion activators.
10 mg of L-α-phosphatidylcholine (95%) (Egg, Chicken) were dissolved in 1 ml of chloroform. The solution was evaporated under a nitrogen stream, under rotation, to form a thin lipid film in the bottom of the flask. This film was left to dry under vacuum for a minimum of 1h. After drying the maximum of the solvent from the solution, 1 ml of the solution to incorporate (CF 50 mM in 5 mM phosphate buffer for EYPC-LUV⊃CF and only phosphate buffer 5 mM pH 7.4, for the LUVs with no encapsulation) was added to the thin film and the lipids were left to resuspend under agitation, in a 40 °C bath, for 30 min. The resuspended lipid mixture was then submitted to 10 freeze-thaw cycles and extruded 23 times through a 100 nm membrane, to obtain uniform, monodisperse liposomes with high encapsulation of the added solution. The liposomes were then separated from the molecules that were not encapsulated by size-exclusion chromatography, with Sephadex G25 (V = 37 ml), obtaining two fractions, one with high turbidity and a clear one, corresponding to the encapsulated and free sensor, respectively. The samples were then analyzed by Dynamic Light Scattering (DLS) to determine the average size of the liposomes in solution and their size distribution.
All assays were done up to 48h after the preparation of the vesicles to ensure their integrity and majority of CF still encapsulated.
EC50 and Ymax calculation. For the measurement of 1 and 2’s effectiveness as a counterion activators of polyarginine transport, dye efflux assays were executed at several counterion activator concentrations, while maintaining the concentration of peptide and LUV fixed as indicated in the respective figures.
For the dye efflux assays, CF emission was followed throughout the assay, with consecutive additions of the elements of the solution – the initial solution presented only the vesicles at a fixed concentration. A counterion activator aliquot is then added according to the concentration to be tested and the emission is measured to confirm that CF remains encapsulated; some counterion activators can act as detergents at sufficient concentrations. Finally, the peptide in question is added and fluorescence spectra are measured […]
until the emission stabilizes and a maximum of release is reached. If the counterion activator has the capacity to activate the transport, CF should be co-transported to the exterior of the liposome with the influx of the counterion-peptide complex. Finally, Triton X-100 is added to the solution to dissolve the […]

[6] = Photochemical characterisation (UV–vis absorption, 1H NMR) and thermal Z→E isomerization; assay type: physicochemical
Text: The photochromic properties of 1 and 2 were investigated in diluted aqueous solution by UV–vis absorption spectroscopy and in CD3OD by ^1H NMR.
On the other hand, irradiation of the Z-forms at λirr = 500 nm originates a photostationary state (PSS) composed of 70 and 80% of E-1 (Φ1Z → E = 0.6) and E-2 (Φ2Z → E = 0.5), respectively (Figure 1 and Figure S23). As generally observed for other azobenzene photoswitches,[42] the E isomers can be quantitatively recovered in the dark through the thermal Z → E isomerization, with 1 and 2 presenting activation energies of 215 and 93 kJ/mol, respectively (Figures S24 and S25).

Apparent affinity constant K for R3 [1]: (5.5 ± 0.3) × 10^6 M^–1 | Apparent affinity constant K for R4 [2]: (2.7 ± 0.4) × 10^8 M^–1 | Apparent affinity constant K for R6 [3]: >1 × 10^9 ^a M^–1 | Apparent affinity constant K for R8 [4]: >1 × 10^9 ^a M^–1
SMILES: O=S(=O)(O)c1cc2c(O)c(c1)Cc1cc(S(=O)(=O)O)cc(c1O)Cc1cc(S(=O)(=O)O)cc(c1O)Cc1cc(S(=O)(=O)O)cc(c1O)C2 [SC4, sulfonatocalix[4]arene, reference compound]

SMILES: N=C(N)NCCC[C@H](NC(=O)[C@H](CCCNC(=N)N)NC(=O)[C@H](CCCNC(=N)N)NC(=O)[C@H](CCCNC(=N)N)NC(=O)[C@H](CCCNC(=N)N)NC(=O)[C@@H](N)CCCNC(=N)N)C(N)=O [R6, hexaarginine, reference compound]
CF transport out of the liposomes on addition of peptide alone [5]: did not activate the transport of CF

SMILES: N=C(N)NCCC[C@H](NC(=O)[C@H](CCCNC(=N)N)NC(=O)[C@H](CCCNC(=N)N)NC(=O)[C@H](CCCNC(=N)N)NC(=O)[C@H](CCCNC(=N)N)NC(=O)[C@H](CCCNC(=N)N)NC(=O)[C@H](CCCNC(=N)N)NC(=O)[C@@H](N)CCCNC(=N)N)C(N)=O [R8, reference compound]
CF transport out of the liposomes on addition of peptide alone [5]: did not activate the transport of CF

SMILES: CCCCc1ccc(N=Nc2ccc(OCCCOc3c4cc(S(=O)(=O)[O-])cc3Cc3cc(S(=O)(=O)[O-])cc(c3O)Cc3cc(S(=O)(=O)[O-])cc(c3O)Cc3cc(S(=O)(=O)[O-])cc(c3O)C4)cc2)cc1.[Li+].[Li+].[Li+].[Li+] [compound 2]
CF fluorescence signal (vesicle leakage) on addition of counterion activator alone ([5]; in the absence of peptides, EYPC-LUV⊃CF): does not affect the intensity of the fluorescence signal | Activation energy of thermal Z → E isomerization ([6]; in the dark): 22.2 kcal/mol | Conversion of the E isomer into the Z-form ([6]; irradiation at 366 nm): quantitative conversion | Photoisomerization quantum yield Φ E → Z ([6]; irradiation at 366 nm, diluted aqueous solution): 0.4 | Photoisomerization quantum yield Φ Z → E ([6]; irradiation at 500 nm): 0.5
